Where two headings read alike, the source gives them in different places. *1 amine or outer side, *2 acyl side, *3 side chain or, on linkers, in order; H or OH if unused. Where a SMILES comes first, the peptide text is derived from it. Bridges are numbered along the chain shown (N, C = ends). Roman numbers before positions name the chains, in order. Where no end group is shown, it is not given here. [ ]: non-standard residue; d: D form. The star is where a group is joined. X1 = O=C(CCOCCOCCOCCOCCOCCOCCOCCOCCOCCOCCOCCOCCOCCOCCOCCOCCOCCOCCOCCOCCOCCC(=O)[*:2])[*:1]; X2 = CCNC(=O)CCOCCOCCOCCOCCOCCOCCOCCOCCOCCOCCOCCOCCOCCOCCOCCOCCOCCOCCOCCOCCOCCC(=O)*; CO(CH2CH2O)5CH2CH2CO = O=C(CCOCCOCCOCCOCCOCCC(=O)[*:2])[*:1]; Lys(Me2) = CN(C)CCCC[C@H](N)C(=O)O
Tests used:
human IL-17A [1] = biological target: T1, human IL-17A (Homo sapiens, UniProt Q16552); test: BJ human fibroblast cell assay, IL-17A stimulated GRO-α production; assay type: cell-based; conditions: BJ human fibroblast cells, 1 ng/ml human IL-17A
T1 construct: host or cells: added to BJ human fibroblasts (ATCC CRL2522)
T1 sequence (Q16552 24-155): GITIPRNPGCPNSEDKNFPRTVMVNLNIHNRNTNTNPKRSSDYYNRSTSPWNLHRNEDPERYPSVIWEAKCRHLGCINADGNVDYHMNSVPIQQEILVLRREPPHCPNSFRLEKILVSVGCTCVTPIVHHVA
Source text: For inhibitor screen, human BJ fibroblast cells (ATCC CRL2522) (American Type Culture Collection, VA) were used. For mouse cell based assay MLE-12 mouse epithelial cells (ATCC CRL2110) were used. Both cell lines were maintained in ATCC recommended media.

murine IL-17A = biological target: T2, murine IL-17A (Mus musculus, UniProt Q62386); test: Murine functional cell assay, MLE-12 mouse epithelial cells, KC production; assay type: cell-based
T2 construct: host or cells: added to MLE-12 mouse epithelial cells (ATCC CRL2110)
T2 sequence (Q62386 26-158): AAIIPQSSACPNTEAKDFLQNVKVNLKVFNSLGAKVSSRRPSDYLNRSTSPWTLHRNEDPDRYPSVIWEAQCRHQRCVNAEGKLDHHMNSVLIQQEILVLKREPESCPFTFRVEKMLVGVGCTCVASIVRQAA
Method: […]. For inhibitor screen, human BJ fibroblast cells (ATCC CRL2522) (American Type Culture Collection, VA) were used. For mouse cell based assay MLE-12 mouse epithelial cells (ATCC CRL2110) were used. Both cell lines were maintained in ATCC recommended media. Cells were seeded at 5 × 10^3 cells/well into 96-well flat-bottom microtiter plates in which peptides that had been pre-diluted with cytokines (1 ng/mL for human IL-17A or 15 ng/mL for mouse IL-17A) in culture medium. Cells were incubated at 37 °C for 16–24 hrs, and supernatants were collected and analyzed by ELISA for either human CXCL1/GRO-α (R&D Systems DY275) or mouse CXCL1/KC (R&D Systems DY453).
Figure S4. Inhibition of IL-17A induced murine keratinocyte-derived cytokine (KC). MLE-12 mouse epithelial cellswere cultured in the presence of IL-17A […]
which time cell culture were removed for analysis of KCproduction.Data are mean and error bars of +/-standard deviation of duplicatedmeasurements […]
(1 picture or pasted object on this page, not shown here)

[2] = biological target: T3, biotinylated mouse IL-17A (mouse, UniProt Q62386 26-158, biotinylated); test: SPR; Biacore 3000; biotinylated protein captured on a streptavidin chip (about 2500 to 3500 RUs); peptide injected at 50 μl/min, 180 s association, at least 600 s dissociation; 10 mM HEPES pH 7.4, 150 mM NaCl, 0.01% P20, 3% DMSO; single site model, global fit; conditions: both partners purified
T3 construct: IL-17A, mouse; also called mIL-17A; murine IL-17A; source: bought: Cell Signaling
T3 sequence (looked up): T2 sequence (Q62386 26-158)

[3] = biological target: T3, biotinylated mouse IL-17A; test: cell-based or functional assay
[4] = biological target: T4, biotinylated recombinant human IL-17A (rhIL-17, R&D Systems #317-ILB) (human, UniProt Q16552 24-155, biotinylated); conditions: both partners purified
T4 construct: IL-17A, human, recombinant; also called Biotinylated IL-17A; source: bought: R&D Systems
T4 sequence (Q16552 24-155): as the sequence (Q16552 24-155) above

human IL-17A [5] = biological target: T5, human IL-17A (human, UniProt Q16552 24-155); test: cell-based or functional assay
T5 sequence (Q16552 24-155): as the sequence (Q16552 24-155) above

human IL-17A [6] = biological target: T5, human IL-17A

CC[C@H](C)[C@H](NC(C)=O)C(=O)N[C@H](C(=O)N[C@H](C(=O)N[C@H](C(=O)N[C@H](C(=O)N1CCC[C@H]1C(=O)N[C@@H](C)C(=O)N[C@@H](CC(=O)O)C(=O)N[C@@H](CC(C)C)C(=O)N[C@@H](Cc1c[nH]c2ccccc12)C(=O)N[C@@H](CC(=O)O)C(=O)N[C@@H](Cc1c[nH]c2ccccc12)C(=O)N[C@H](C(=O)N[C@@H](CC(N)=O)C(=O)N[C@@H](CCCCN(C)C)C(=O)N[C@@H](CCCCNC(=O)CCOCCOCCOCCOCCOCCC(=O)NCCCC[C@H](NC(=O)[C@H](CCCCN(C)C)NC(=O)[C@H](CC(N)=O)NC(=O)[C@@H](NC(=O)[C@H](Cc1c[nH]c2ccccc12)NC(=O)[C@H](CC(=O)O)NC(=O)[C@H](Cc1c[nH]c2ccccc12)NC(=O)[C@H](CC(C)C)NC(=O)[C@H](CC(=O)O)NC(=O)[C@H](C)NC(=O)[C@@H]1CCCN1C(=O)[C@@H](NC(=O)[C@@H](NC(=O)[C@@H](NC(=O)[C@@H](NC(=O)[C@@H](NC(C)=O)[C@@H](C)CC)[C@@H](C)O)C(C)C)[C@@H](C)O)[C@@H](C)CC)[C@@H](C)CC)C(N)=O)C(N)=O)[C@@H](C)CC)[C@@H](C)CC)[C@@H](C)O)C(C)C)[C@@H](C)O [Compound 46] (I: Ac-ITVTIPADLWDWIN[Lys(Me2)]K-NH2 / II: Ac-ITVTIPADLWDWIN[Lys(Me2)]K-NH2; linker I:16-II:16 via CO(CH2CH2O)5CH2CH2CO)
IC50 (human IL-17A [1]): 582 nM

CCNC(=O)CCOCCOCCOCCOCCOCCOCCOCCOCCOCCOCCOCCOCCOCCOCCOCCOCCOCCOCCOCCOCCOCCC(=O)NCCCC[C@H](NC(=O)[C@@H](NC(=O)[C@H](Cc1c[nH]c2ccccc12)NC(=O)[C@H](CC(=O)O)NC(=O)[C@H](Cc1c[nH]c2ccccc12)NC(=O)[C@H](CC(C)C)NC(=O)[C@H](CC(=O)O)NC(=O)[C@H](C)NC(=O)[C@@H]1CCCN1C(=O)[C@@H](NC(=O)[C@@H](NC(=O)[C@@H](NC(=O)[C@@H](NC(=O)[C@@H](NC(C)=O)[C@@H](C)CC)[C@@H](C)O)C(C)C)[C@@H](C)O)[C@@H](C)CC)[C@@H](C)CC)C(=O)N[C@@H](CCCCN(C)C)C(N)=O [Compound 48] (Ac-ITVTIPADLWDWIK(X2)[Lys(Me2)]-NH2)
IC50 (human IL-17A [1]): 21 nM

Ac-IHVTIPADLWDWINK-NH2 [Compound 30]
IC50 (murine IL-17A): > 1000 nM

CC[C@H](C)[C@H](NC(C)=O)C(=O)N[C@H](C(=O)N[C@H](C(=O)N[C@H](C(=O)N[C@H](C(=O)N1CCC[C@H]1C(=O)N[C@@H](C)C(=O)N[C@@H](CC(=O)O)C(=O)N[C@@H](CC(C)C)C(=O)N[C@@H](Cc1c[nH]c2ccccc12)C(=O)N[C@@H](CC(=O)O)C(=O)N[C@@H](Cc1c[nH]c2ccccc12)C(=O)N[C@H](C(=O)N[C@@H](CC(N)=O)C(=O)N[C@@H](CCCCN(C)C)C(=O)N[C@@H](CCCCNC(=O)CCOCCOCCOCCOCCOCCOCCOCCOCCOCCOCCOCCOCCOCCOCCOCCOCCOCCOCCOCCOCCOCCC(=O)NCCCC[C@H](NC(=O)[C@H](CCCCN(C)C)NC(=O)[C@H](CC(N)=O)NC(=O)[C@@H](NC(=O)[C@H](Cc1c[nH]c2ccccc12)NC(=O)[C@H](CC(=O)O)NC(=O)[C@H](Cc1c[nH]c2ccccc12)NC(=O)[C@H](CC(C)C)NC(=O)[C@H](CC(=O)O)NC(=O)[C@H](C)NC(=O)[C@@H]1CCCN1C(=O)[C@@H](NC(=O)[C@@H](NC(=O)[C@@H](NC(=O)[C@@H](NC(=O)[C@@H](NC(C)=O)[C@@H](C)CC)[C@@H](C)O)C(C)C)[C@@H](C)O)[C@@H](C)CC)[C@@H](C)CC)C(N)=O)C(N)=O)[C@@H](C)CC)[C@@H](C)CC)[C@@H](C)O)C(C)C)[C@@H](C)O [Compound 47] (I: Ac-ITVTIPADLWDWIN[Lys(Me2)]K-NH2 / II: Ac-ITVTIPADLWDWIN[Lys(Me2)]K-NH2; linker I:16-II:16 via X1)
IC50 (human IL-17A [1]): 16 nM

Ac-IHVTIPADLWDWI-NH2 [Compound 36]
IC50 (human IL-17A [1]): 183 nM

CC[C@H](C)[C@H](NC(C)=O)C(=O)N[C@@H](Cc1c[nH]cn1)C(=O)N[C@H](C(=O)N[C@H](C(=O)N[C@H](C(=O)N1CCC[C@H]1C(=O)N[C@@H](C)C(=O)N[C@@H](CC(=O)O)C(=O)N[C@@H](CC(C)C)C(=O)N[C@@H](Cc1c[nH]c2ccccc12)C(=O)N[C@@H](CC(=O)O)C(=O)N[C@@H](Cc1c[nH]c2ccccc12)C(=O)N[C@H](C(=O)N[C@@H](CC(N)=O)C(N)=O)[C@@H](C)CC)[C@@H](C)CC)[C@@H](C)O)C(C)C [Compound 35]
IC50 (human IL-17A [1]): 12 nM

CC[C@H](C)[C@H](NC(C)=O)C(=O)N[C@H](C(=O)N[C@H](C(=O)N[C@H](C(=O)N[C@H](C(=O)N1CCC[C@H]1C(=O)N[C@@H](C)C(=O)N[C@@H](CC(=O)O)C(=O)N[C@@H](CC(C)C)C(=O)N[C@@H](Cc1c[nH]c2ccccc12)C(=O)N[C@@H](CC(=O)O)C(=O)N[C@@H](Cc1c[nH]c2ccccc12)C(=O)N[C@H](C(=O)N[C@@H](CCCCNC(=O)CCOCCOCCOCCOCCOCCOCCOCCOCCOCCOCCOCCOCCOCCOCCOCCOCCOCCOCCOCCOCCOCCC(=O)NCCCC[C@H](NC(=O)[C@@H](NC(=O)[C@H](Cc1c[nH]c2ccccc12)NC(=O)[C@H](CC(=O)O)NC(=O)[C@H](Cc1c[nH]c2ccccc12)NC(=O)[C@H](CC(C)C)NC(=O)[C@H](CC(=O)O)NC(=O)[C@H](C)NC(=O)[C@@H]1CCCN1C(=O)[C@@H](NC(=O)[C@@H](NC(=O)[C@@H](NC(=O)[C@@H](NC(=O)[C@@H](NC(C)=O)[C@@H](C)CC)[C@@H](C)O)C(C)C)[C@@H](C)O)[C@@H](C)CC)[C@@H](C)CC)C(=O)N[C@@H](CCCCN(C)C)C(N)=O)C(=O)N[C@@H](CCCCN(C)C)C(N)=O)[C@@H](C)CC)[C@@H](C)CC)[C@@H](C)O)C(C)C)[C@@H](C)O [Compound 45] (I: Ac-ITVTIPADLWDWIK[Lys(Me2)]-NH2 / II: Ac-ITVTIPADLWDWIK[Lys(Me2)]-NH2; linker I:14-II:14 via X1)
IC50 (murine IL-17A; MLE-12 cells, 15 ng/ml murine IL-17A, KC production, read-out: IC50, murine IL-17A): 41 nM | IC50 (human IL-17A [1]): 0.1 nM

CC[C@H](C)[C@H](NC(=O)CCOCCOCCOCCOCCOCCOCCOCCOCCOCCOCCOCCOCCOCCOCCOCCOCCOCCOCCOCCOCCOCCC(=O)N[C@H](C(=O)N[C@H](C(=O)N[C@H](C(=O)N[C@H](C(=O)N[C@H](C(=O)N1CCC[C@H]1C(=O)N[C@@H](C)C(=O)N[C@@H](CC(=O)O)C(=O)N[C@@H](CC(C)C)C(=O)N[C@@H](Cc1c[nH]c2ccccc12)C(=O)N[C@@H](CC(=O)O)C(=O)N[C@@H](Cc1c[nH]c2ccccc12)C(=O)N[C@H](C(=O)N[C@@H](CC(N)=O)C(=O)N[C@@H](CCCCN(C)C)C(N)=O)[C@@H](C)CC)[C@@H](C)CC)[C@@H](C)O)C(C)C)[C@@H](C)O)[C@@H](C)CC)C(=O)N[C@H](C(=O)N[C@H](C(=O)N[C@H](C(=O)N[C@H](C(=O)N1CCC[C@H]1C(=O)N[C@@H](C)C(=O)N[C@@H](CC(=O)O)C(=O)N[C@@H](CC(C)C)C(=O)N[C@@H](Cc1c[nH]c2ccccc12)C(=O)N[C@@H](CC(=O)O)C(=O)N[C@@H](Cc1c[nH]c2ccccc12)C(=O)N[C@H](C(=O)N[C@@H](CC(N)=O)C(=O)N[C@@H](CCCCN(C)C)C(N)=O)[C@@H](C)CC)[C@@H](C)CC)[C@@H](C)O)C(C)C)[C@@H](C)O [Compound 39] (I: ITVTIPADLWDWIN[Lys(Me2)]-NH2 / II: ITVTIPADLWDWIN[Lys(Me2)]-NH2; linker I:N-II:N via X1)
IC50 (human IL-17A [1]): 0.74 nM

B1: high affinity IL-17A peptide antagonist (HAP) (peptide)
peptide: Ac-IHVTIPADLWDWINK
notes: 15-residue peptide that combines the key residues found by SAR; made on Rink resin; a C-terminal amide is surmised; also called 30; peptide 30; source: synthetic peptide
Kd [2]: 30.1 ± 0.1 nM | IC50 in a murine functional cell assay using 15 ng/ml murine IL-17A (inhibition of murine IL-17A signaling) [3]: > 1000 nM

B2: peptide 1 (peptide)
peptide: Ac-IVVTMPADLWDWIKA
modifications: not fully specified (C-terminus)
notes: 15-mer linear peptide from phage display; made on Rink resin; a C-terminal amide is surmised; also called phage peptide 1; source: synthetic peptide
IC50 [4]: 80 nM | Cell IC50: inhibition of GRO-α production in BJ human fibroblast cells stimulated with 1 ng/ml IL-17A (human IL-17A [5]): 370 nM

B3: peptide 24 (peptide)
peptide: Ac-IVVTIPADLWDWIRA
modifications: not fully specified (C-terminus)
notes: analogue of peptide 2, I at position 5; made on Rink resin; a C-terminal amide is surmised; source: synthetic peptide
IC50 [4]: 3 nM | Cell IC50: inhibition of GRO-α production in BJ human fibroblast cells stimulated with 1 ng/ml IL-17A (human IL-17A [5]): 18 nM

B4: peptide 36 (peptide)
peptide: Ac-IHVTIPADLWDWI
modifications: not fully specified (C-terminus)
Cell IC50: inhibition of IL-17A signaling in BJ human fibroblast cells stimulated with 1 ng/ml IL-17A (human IL-17A [6]): 183 nM

— article PMC4869123 (Scientific Reports, 2016)
